Patent US20230265151A1, “GIP/GLP1 CO-AGONIST COMPOUNDS” (priority 2020, published 2023)
Where two headings read alike, the source gives them in different places. *1 amine or outer side, *2 acyl side, *3 side chain or, on linkers, in order; H or OH if unused. Where a SMILES comes first, the peptide text is derived from it. Side-chain parts run from the residue outwards. [ ]: non-standard residue; d: D form. The star is where a group is joined. αMePhe(2-F) = C[C@](N)(Cc1ccccc1F)C(=O)O; γGlu = O=C(O)[C@H](CCC(=O)[*:2])N[*:1]; αMeY = C[C@](N)(Cc1ccc(O)cc1)C(=O)O; αMeF = C[C@](N)(Cc1ccccc1)C(=O)O; αMeL = CC(C)C[C@](C)(N)C(=O)O; Lauroyl = CCCCCCCCCCCC(=O)*; Orn = NCCC[C@H](N)C(=O)O; AEEA = NCCOCCOCC(=O)O; Aib = CC(C)(N)C(=O)O

Legend:
[1] = biological target: T1, human GIP receptor (hGIPR) (Homo sapiens, UniProt P48546); test: [125I]-GIP binding, SPA with membranes of CHO cells expressing hGIPR; conditions: human GIPR; geometric mean (SEM, n); read-out: Binding Affinity Ki, nM (SEM, n) hGIPR
T1 construct: expressed in transfected cells; crude membranes
T1 sequence (P48546 22-466): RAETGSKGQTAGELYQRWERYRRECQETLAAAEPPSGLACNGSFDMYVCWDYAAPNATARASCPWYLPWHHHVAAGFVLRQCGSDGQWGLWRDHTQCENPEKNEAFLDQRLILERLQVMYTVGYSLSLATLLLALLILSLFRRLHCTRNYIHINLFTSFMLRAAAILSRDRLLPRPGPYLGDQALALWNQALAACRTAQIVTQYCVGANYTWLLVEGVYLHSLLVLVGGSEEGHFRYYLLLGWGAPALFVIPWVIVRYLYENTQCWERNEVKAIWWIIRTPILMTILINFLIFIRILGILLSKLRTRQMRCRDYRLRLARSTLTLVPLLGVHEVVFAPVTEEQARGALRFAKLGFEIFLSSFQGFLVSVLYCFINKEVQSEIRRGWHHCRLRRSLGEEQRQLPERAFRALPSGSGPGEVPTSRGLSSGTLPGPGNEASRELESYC

[2] = biological target: T2, human GLP-1 receptor (hGLP-1R) (Homo sapiens, UniProt P43220); test: [125I]-GLP-1 binding, SPA with membranes of HEK293 cells expressing hGLP-1R; conditions: human GLP-1R; geometric mean (SEM, n); read-out: Binding Affinity Ki, nM (SEM, n) hGLP-1R
T2 construct: expressed in transfected cells; crude membranes
T2 sequence (P43220 24-463): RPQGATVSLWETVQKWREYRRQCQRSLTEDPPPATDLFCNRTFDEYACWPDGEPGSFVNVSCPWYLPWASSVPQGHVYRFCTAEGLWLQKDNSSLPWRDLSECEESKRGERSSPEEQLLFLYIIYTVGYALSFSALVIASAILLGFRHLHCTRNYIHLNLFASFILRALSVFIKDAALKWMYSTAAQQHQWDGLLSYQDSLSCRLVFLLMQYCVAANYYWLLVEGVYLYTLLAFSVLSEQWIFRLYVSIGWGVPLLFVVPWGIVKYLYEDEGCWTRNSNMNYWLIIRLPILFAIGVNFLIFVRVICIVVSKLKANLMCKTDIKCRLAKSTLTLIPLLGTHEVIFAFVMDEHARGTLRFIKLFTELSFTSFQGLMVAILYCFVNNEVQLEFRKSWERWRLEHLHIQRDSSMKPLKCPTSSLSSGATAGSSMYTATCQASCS

[3] = biological target: hGLP-1R (Homo sapiens, UniProt P43220); test: Functional cAMP formation (HTRF) in HEK-293 clonal cells expressing hGLP-1R, 0.1% bovine casein, without or with 1.0% human serum albumin; assay type: cell-based; parameters: expressed in transfected cells; conditions: for Emax: percent of maximal response to GLP-1(7-36)NH2, read-out: hGLP-1R Emax, % ± SEM; for EC50: cAMP, 0.1% bovine casein (no human serum albumin), geometric mean, read-out: hGLP-1R EC50, nM (SEM, n)
hGLP-1R, sequence (P43220 24-463): as above
In short: (§1)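 Cells were stimulated with peptide for 30 min at 37° C, then intracellular cAMP was measured by competitive HTRF (665/620 nm ratio) and converted to nM using a cAMP standard curve. Relative EC50 and Emax came from four-parameter logistic fits of percent maximal response against peptide concentration.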

[4] = biological target: T3, hGCGR (Homo sapiens, UniProt P47871); test: Functional cAMP formation (HTRF) in HEK-293 clonal cells expressing hGCGR, 0.1% bovine casein, without or with 1.0% human serum albumin; assay type: cell-based; conditions: read-out: hGCGR EC50, nM (SEM, n)
T3 construct: expressed in transfected cells
T3 sequence (P47871 26-477): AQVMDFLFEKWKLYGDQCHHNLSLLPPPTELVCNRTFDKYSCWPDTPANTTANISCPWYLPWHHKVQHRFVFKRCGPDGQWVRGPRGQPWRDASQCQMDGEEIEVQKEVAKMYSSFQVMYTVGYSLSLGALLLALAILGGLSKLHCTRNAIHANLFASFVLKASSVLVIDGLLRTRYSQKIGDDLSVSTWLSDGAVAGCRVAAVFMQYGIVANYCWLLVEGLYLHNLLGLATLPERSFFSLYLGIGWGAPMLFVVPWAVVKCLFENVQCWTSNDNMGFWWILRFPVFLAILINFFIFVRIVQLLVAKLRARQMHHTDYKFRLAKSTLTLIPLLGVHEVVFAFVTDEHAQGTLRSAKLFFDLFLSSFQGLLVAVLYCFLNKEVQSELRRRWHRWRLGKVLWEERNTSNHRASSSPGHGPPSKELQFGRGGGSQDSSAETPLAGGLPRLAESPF
In short: as §1

[5] = biological target: T4, hGIPR (Homo sapiens, UniProt P48546); test: Functional cAMP formation (HTRF) in HEK-293 clonal cells expressing hGIPR, 0.1% bovine casein, without or with 1.0% human serum albumin; assay type: cell-based; conditions: for Emax: read-out: hGIPR Emax, % ± SEM; for EC50: cAMP, 0.1% bovine casein (no human serum albumin), geometric mean, read-out: hGIPR EC50, nM (SEM, n)
T4 construct: expressed in transfected cells
T4 sequence (P48546 22-466): T1 sequence (P48546 22-466)
In short: as §1

[6] = HEK293, 0.1% bovine casein and 1.0% human serum albumin, 37° C.
[7] = 0.1% bovine casein and 1.0% human serum albumin, 37° C., geometric mean
[8] = cAMP, incubated at 37° C., 0.1% bovine casein (no human serum albumin), geometric mean
[9] = HEK293, 0.1% bovine casein and 1.0% human serum albumin, 37° C., percent of maximal response to GIP(1-42)NH2
[10] = HEK293, percent of maximal response to GIP(1-42)NH2, 37° C., 0.1% bovine casein, arithmetic mean
[11] = cAMP, 37° C., 0.1% bovine casein (no human serum albumin), geometric mean

Row | SMILES | Ki [1] | Ki [2] | Emax [3, 6] | EC50 ([3]; incubated at 37° C.) | EC50 [4, 7] | EC50 [4, 8] | Emax [5, 9] | Emax [5, 10] | EC50 ([5]; incubated at 37° C.) | EC50 ([3]; 37° C.) | EC50 [4, 11] | EC50 ([5]; 37° C.) | Emax ([3]; HEK293, cAMP, 37° C., 0.1% bovine casein and 1.0% human serum albumin) | Emax ([3]; HEK293, cAMP, 37° C., 0.1% bovine casein, arithmetic mean) | EC50 ([4]; cAMP, 37° C., 0.1% bovine casein and 1.0% human serum albumin, geometric mean (SEM, n)) | Emax ([5]; HEK293, cAMP, 37° C., 0.1% bovine casein and 1.0% human serum albumin, percent of maximal response to GIP(1-42)NH2)
1 | CC[C@H](C)[C@H](NC(=O)[C@H](CC(C)C)NC(=O)[C@](C)(Cc1ccc(O)cc1)NC(=O)[C@@H](CCC(=O)O)NC(=O)[C@@H](NC(=O)[C@H](Cc1ccccc1)NC(=O)[C@H](CCC(=O)O)NC(=O)C(C)(C)NC(=O)[C@H](CCC(N)=O)NC(=O)[C@H](C)NC(=O)[C@H](CCCCNC(=O)COCCOCCNC(=O)COCCOCCNC(=O)CC[C@H](NC(=O)CCCCCCCCCCCCC(=O)O)C(=O)O)NC(=O)[C@H](CCCN)NC(=O)[C@H](CC(=O)O)NC(=O)[C@H](CC(C)C)NC(=O)[C@](C)(CC(C)C)NC(=O)[C@@H](NC(=O)[C@H](CO)NC(=O)[C@H](Cc1ccc2ccccc2c1)NC(=O)[C@H](CC(=O)O)NC(=O)[C@H](CO)NC(=O)[C@@H](NC(=O)[C@](C)(Cc1ccccc1F)NC(=O)[C@@H](NC(=O)CNC(=O)[C@H](CCC(=O)O)NC(=O)C(C)(C)NC(=O)[C@@H](N)Cc1ccc(O)cc1)[C@@H](C)O)[C@@H](C)O)[C@@H](C)CC)[C@@H](C)CC)C(=O)N[C@@H](CCC(=O)O)C(=O)NCC(=O)NCC(=O)N[C@@H](CCCCNC(=O)COCCOCCNC(=O)COCCOCCNC(=O)CC[C@H](NC(=O)CCCCCCCCCCCCC(=O)O)C(=O)O)C(=O)N[C@@H](CO)C(=O)N[C@@H](CO)C(=O)NCC(=O)N[C@@H](C)C(=O)N1CCC[C@H]1C(=O)N1CCC[C@H]1C(=O)N1CCC[C@H]1C(=O)N[C@@H](CO)C(N)=O [Example 57] | 0.297 nM | 4.35 nM | 114 ± 7.39% | 0.14 nM | > 9950 nM | > 9950 nM | 92.1 ± 5.54% | 91.5 ± 4.94% | 0.0135 nM |  |  |  |  |  |  | 
2 | CCCCCCCCCCCC(=O)N[C@@H](CCC(=O)NCCOCCOCC(=O)NCCOCCOCC(=O)NCCCC[C@H](NC(=O)[C@H](CCCN)NC(=O)[C@H](CC(=O)O)NC(=O)[C@H](CC(C)C)NC(=O)[C@](C)(CC(C)C)NC(=O)[C@@H](NC(=O)[C@H](CO)NC(=O)[C@H](CCCCNC(=O)COCCOCCNC(=O)COCCOCCNC(=O)CC[C@H](NC(=O)CCCCCCCCCCC)C(=O)O)NC(=O)[C@H](CC(=O)O)NC(=O)[C@H](CO)NC(=O)[C@@H](NC(=O)[C@](C)(Cc1ccccc1F)NC(=O)[C@@H](NC(=O)CNC(=O)[C@H](CCC(=O)O)NC(=O)C(C)(C)NC(=O)[C@@H](N)Cc1ccc(O)cc1)[C@@H](C)O)[C@@H](C)O)[C@@H](C)CC)C(=O)N[C@@H](C)C(=O)N[C@@H](CCC(N)=O)C(=O)NC(C)(C)C(=O)N[C@@H](CCC(=O)O)C(=O)N[C@@](C)(Cc1ccccc1)C(=O)N[C@H](C(=O)N[C@H](CCC(=O)O)C(=O)N[C@@](C)(Cc1ccc(O)cc1)C(=O)N[C@@H](CC(C)C)C(=O)N[C@H](C(=O)N[C@@H](CCC(=O)O)C(=O)NCC(=O)NCC(=O)N1CCC[C@H]1C(=O)N[C@@H](CO)C(=O)N[C@@H](CO)C(=O)NCC(=O)N[C@@H](C)C(=O)N1CCC[C@H]1C(=O)N1CCC[C@H]1C(=O)N1CCC[C@H]1C(=O)N[C@@H](CO)C(N)=O)[C@@H](C)CC)[C@@H](C)CC)C(=O)O [Example 293] (H-Y[Aib]EGT[αMePhe(2-F)]TSDK([AEEA-AEEA-γGlu-Lauroyl])SI[αMeL]LD[Orn]K([AEEA-AEEA-γGlu-Lauroyl])AQ[Aib]E[αMeF]I[dE][αMeY]LIEGGPSSGAPPPS-NH2) | 0.022 nM | 0.211 nM | 99.4% |  | > 9950 nM |  | 96.6% |  |  | 0.102 nM | > 9950 nM | 0.00915 nM |  |  |  | 
3 | CC[C@H](C)[C@H](NC(=O)[C@H](CC(C)C)NC(=O)[C@](C)(Cc1ccc(O)cc1)NC(=O)[C@@H](CCC(=O)O)NC(=O)[C@@H](NC(=O)[C@H](Cc1cc(F)cc(F)c1)NC(=O)[C@H](CCC(=O)O)NC(=O)C(C)(C)NC(=O)[C@H](CCC(N)=O)NC(=O)[C@H](C)NC(=O)[C@H](CCCCNC(=O)COCCOCCNC(=O)COCCOCCNC(=O)CC[C@H](NC(=O)CCCCCCCCCCCCC(=O)O)C(=O)O)NC(=O)[C@H](CCCN)NC(=O)[C@H](CC(=O)O)NC(=O)[C@H](CC(C)C)NC(=O)[C@](C)(CC(C)C)NC(=O)[C@@H](NC(=O)[C@H](CO)NC(=O)[C@H](Cc1ccncc1)NC(=O)[C@H](CC(=O)O)NC(=O)[C@H](CO)NC(=O)[C@@H](NC(=O)[C@](C)(Cc1ccccc1F)NC(=O)[C@@H](NC(=O)CNC(=O)[C@H](CCC(=O)O)NC(=O)C(C)(C)NC(=O)[C@@H](N)Cc1ccc(O)cc1)[C@@H](C)O)[C@@H](C)O)[C@@H](C)CC)[C@@H](C)CC)C(=O)N[C@@H](CCC(=O)O)C(=O)NCC(=O)NCC(=O)N[C@@H](CCCCNC(=O)COCCOCCNC(=O)COCCOCCNC(=O)CC[C@H](NC(=O)CCCCCCCCCCCCC(=O)O)C(=O)O)C(=O)N[C@@H](CO)C(=O)N[C@@H](CO)C(=O)NCC(=O)N[C@@H](C)C(=O)N1CCC[C@H]1C(=O)N1CCC[C@H]1C(=O)N1CCC[C@H]1C(=O)N[C@@H](CO)C(N)=O [Example 65] | 0.121 nM | 1.05 nM |  | 0.3 nM | > 9950 nM | > 9950 nM | 93.8 ± 6.73% | 95.2 ± 2.93% | 0.0139 nM |  |  |  |  |  |  | 
4 | CC[C@H](C)[C@H](NC(=O)[C@H](CC(C)C)NC(=O)[C@](C)(Cc1ccc(O)cc1)NC(=O)[C@H](CCCCNC(=O)COCCOCCNC(=O)COCCOCCNC(=O)CC[C@H](NC(=O)CCCCCCCCCCCCC(=O)O)C(=O)O)NC(=O)[C@@H](NC(=O)[C@H](Cc1ccccc1)NC(=O)[C@H](CCCN)NC(=O)C(C)(C)NC(=O)[C@H](CCC(N)=O)NC(=O)[C@H](C)NC(=O)[C@H](CCC(N)=O)NC(=O)[C@H](CCCN)NC(=O)[C@H](CC(=O)O)NC(=O)[C@H](CC(C)C)NC(=O)[C@](C)(CC(C)C)NC(=O)[C@@H](NC(=O)C(C)(C)NC(=O)[C@H](Cc1ccncc1)NC(=O)[C@H](CC(=O)O)NC(=O)[C@H](CO)NC(=O)[C@@H](NC(=O)[C@](C)(Cc1ccccc1F)NC(=O)[C@@H](NC(=O)CNC(=O)[C@H](CCC(=O)O)NC(=O)C(C)(C)NC(=O)[C@@H](N)Cc1ccc(O)cc1)[C@@H](C)O)[C@@H](C)O)[C@@H](C)CC)[C@@H](C)CC)C(=O)N[C@@H](CCCCNC(=O)COCCOCCNC(=O)COCCOCCNC(=O)CC[C@H](NC(=O)CCCCCCCCCCCCC(=O)O)C(=O)O)C(=O)NCC(=O)NCC(=O)N1CCC[C@H]1C(=O)N[C@@H](CO)C(=O)N[C@@H](CO)C(=O)NCC(=O)N[C@@H](C)C(=O)N1CCC[C@H]1C(=O)N1CCC[C@H]1C(=O)N1CCC[C@H]1C(=O)N[C@@H](CO)C(N)=O [Example 391] | 0.0279 nM | 0.346 nM |  |  |  |  |  |  |  | 0.167 nM | > 9950 nM | 0.0101 nM | 105% | 109% | > 9950 nM | 88.3%
